Earlier results on five molecules are cited in patent US6465436B2, “Method for treating alcohol intoxication and alcohol abuse” (McLean Hospital, priority 2000, dated 2002).

The conditions of data set [1]: for alcohol consumption suppressing activity of herbal medicines derived from Pueraria lobata (fractionation studies): U.S. Pat. No. 5,783,189.
For data set [2], the system named is Syrian Golden hamsters.
The conditions of data set [3]: in vivo.
In data set [4] the target is T1, human ALDH-1 (Homo sapiens, UniProt P05091).
T1 sequence (P05091 18-517): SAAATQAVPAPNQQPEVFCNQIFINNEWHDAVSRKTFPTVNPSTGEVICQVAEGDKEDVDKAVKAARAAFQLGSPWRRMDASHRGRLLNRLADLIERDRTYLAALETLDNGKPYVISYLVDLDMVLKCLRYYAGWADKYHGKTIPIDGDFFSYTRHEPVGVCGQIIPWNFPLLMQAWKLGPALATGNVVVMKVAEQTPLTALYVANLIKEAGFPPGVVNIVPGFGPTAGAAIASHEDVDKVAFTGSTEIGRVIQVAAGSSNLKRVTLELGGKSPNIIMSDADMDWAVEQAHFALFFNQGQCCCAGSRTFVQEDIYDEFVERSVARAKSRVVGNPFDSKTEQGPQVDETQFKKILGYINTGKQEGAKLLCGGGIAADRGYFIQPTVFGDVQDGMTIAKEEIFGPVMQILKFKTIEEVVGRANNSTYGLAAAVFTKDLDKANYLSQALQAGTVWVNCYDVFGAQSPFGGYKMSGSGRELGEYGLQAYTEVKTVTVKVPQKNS

Data set [5] concerns ALDH.

With `COc1cc(-c2coc3c([C@@H]4O[C@H](CO)[C@@H](O)[C@H](O)[C@H]4O)c(O)ccc3c2=O)ccc1O` [3′-methoxypuerarin], the “alcohol consumption suppressing activity of herbal medicines derived from Pueraria lobata (fractionation studies)” value in data set [1] is recorded as “primarily responsible for the alcohol consumption suppressing activity”.
Take `O=c1c(-c2ccc(O)cc2)coc2cc(O)ccc12` [daidzein]: in data set [2], the alcohol intake result is on record as “suppressed alcohol intake”. Moreover, in data set [3], the blood alcohol levels result is recorded as “decreases blood alcohol levels” and the “sleep time induced by alcohol” value is listed as “shortens sleep time”. Besides, in data set [4], the “human ALDH-1 inhibition” value was “potent human ALDH-1 inhibitors”. Moreover, the “alcohol consumption suppressing activity of herbal medicines derived from Pueraria lobata (fractionation studies)” value in data set [1] is listed as “primarily responsible for the alcohol consumption suppressing activity”.
Take `O=c1c(-c2ccc(O)cc2)coc2cc(O[C@@H]3O[C@H](CO)[C@@H](O)[C@H](O)[C@H]3O)ccc12` [daidzin]: the alcohol intake result in data set [2] is given as “suppressed alcohol intake”. Moreover, the “human ALDH-1 inhibition” value in data set [4] was “potent human ALDH-1 inhibitors”. Further, the “alcohol consumption suppressing activity of herbal medicines derived from Pueraria lobata (fractionation studies)” value in data set [1] was “primarily responsible for the alcohol consumption suppressing activity”.
Consider `O=c1c(-c2ccc(O)cc2)coc2c([C@@H]3O[C@H](CO[C@@H]4OC[C@](O)(CO)[C@H]4O)[C@@H](O)[C@H](O)[C@H]3O)c(O)ccc12` [mirificin], for which the “alcohol consumption suppressing activity of herbal medicines derived from Pueraria lobata (fractionation studies)” value in data set [1] is “primarily responsible for the alcohol consumption suppressing activity”.
On to `O=c1c(-c2ccc(O)cc2)coc2c([C@@H]3O[C@H](CO)[C@@H](O)[C@H](O)[C@H]3O)c(O)ccc12` [puerarin], for which the ALDH inhibition result in data set [5] is on record as “not an ALDH inhibitor”. Further, in data set [1], the “alcohol consumption suppressing activity of herbal medicines derived from Pueraria lobata (fractionation studies)” value was “primarily responsible for the alcohol consumption suppressing activity”. For the same molecule, the “activity in suppressing alcohol intake relative to daidzin” value in data set [1] (in vivo) was “slightly less active than daidzin”.
